Like-named read-outs stand apart in the source and are kept apart here.
What was measured:
Assay in all cases: In vitro competitive activity-based protein profiling (gel-based, FP-Rh or HT-01 probe)
Type in all cases: biochemical
PLA2G7 = target: T1, PLA2G7 (Mus musculus, UniProt Q60963); conditions: for inhibition at 1 µM: 1 μM inhibitor, read-out: % Inhibition at 1 μM, D = PLA2G7; for IC50: mouse brain membrane fraction or cell lysates, 30 min preincubation at 37° C.; for inhibition at 10 µM: 10 μM inhibitor, read-out: % Inhibition at 10 μM, D = PLA2G7
T1 construct: Proteomes (mouse brain membrane fraction or cell lysates); from tissue; host or cells: mouse brain membrane fraction (or cell lysates, not specified)
T1 sequence (Q60963 22-440): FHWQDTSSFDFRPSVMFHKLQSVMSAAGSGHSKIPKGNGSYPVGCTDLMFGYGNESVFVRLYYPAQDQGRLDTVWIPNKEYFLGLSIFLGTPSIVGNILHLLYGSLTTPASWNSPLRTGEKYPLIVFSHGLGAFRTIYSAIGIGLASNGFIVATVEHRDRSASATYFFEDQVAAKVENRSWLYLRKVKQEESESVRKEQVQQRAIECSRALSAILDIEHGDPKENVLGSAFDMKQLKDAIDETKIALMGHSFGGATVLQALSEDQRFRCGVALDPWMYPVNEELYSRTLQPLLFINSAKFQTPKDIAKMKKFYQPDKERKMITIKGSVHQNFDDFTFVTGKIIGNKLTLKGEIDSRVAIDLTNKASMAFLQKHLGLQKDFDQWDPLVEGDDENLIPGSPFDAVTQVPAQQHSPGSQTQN
Summary of the method: (§1)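 Gel-based read-out: fluorescent band intensity after SDS-PAGE reflected remaining hydrolase activity. Inhibitors were preincubated 30 min at 37° C with 1.0 mg/mL mouse brain membrane or lysate proteome before a further 30 min at 37° C with FP-Rh or HT-01 probe.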

ABHD6 = target: T2, ABHD6 (Mus musculus, UniProt Q8R2Y0); conditions: for inhibition at 1 µM: 1 μM inhibitor, read-out: % Inhibition at 1 μM, C = ABHD6; for IC50: mouse brain membrane fraction or cell lysates, 30 min preincubation at 37° C., read-out: Mouse (IC50 value, nM) ABHD6; for inhibition at 10 µM: 10 μM inhibitor, read-out: % Inhibition at 10 μM, C = ABHD6
T2 construct: Proteomes (mouse brain membrane fraction or cell lysates); from tissue; host or cells: mouse brain membrane fraction (or cell lysates, not specified)
T2 sequence (Q8R2Y0 1-336): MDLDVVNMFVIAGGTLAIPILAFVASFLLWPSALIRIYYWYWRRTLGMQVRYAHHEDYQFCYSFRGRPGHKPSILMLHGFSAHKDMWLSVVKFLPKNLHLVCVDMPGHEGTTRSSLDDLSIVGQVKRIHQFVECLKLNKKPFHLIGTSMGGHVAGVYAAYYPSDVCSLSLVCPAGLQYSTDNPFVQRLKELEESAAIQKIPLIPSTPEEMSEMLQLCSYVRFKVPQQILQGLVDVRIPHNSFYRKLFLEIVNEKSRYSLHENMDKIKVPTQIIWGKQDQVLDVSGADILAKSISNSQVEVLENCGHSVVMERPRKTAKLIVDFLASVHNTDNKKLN
Summary of the method: as §1

FAAH = target: T3, FAAH (Mus musculus, UniProt O08914); conditions: for inhibition at 1 µM: 1 μM inhibitor, read-out: % Inhibition at 1 μM, B = FAAH; for IC50: mouse brain membrane fraction or cell lysates, 30 min preincubation at 37° C., read-out: Mouse (IC50 value, nM) FAAH; for inhibition at 10 µM: 10 μM inhibitor, read-out: % Inhibition at 10 μM, B = FAAH
T3 construct: Proteomes (mouse brain membrane fraction or cell lysates); from tissue; host or cells: mouse brain membrane fraction (or cell lysates, not specified)
T3 sequence (O08914 1-579): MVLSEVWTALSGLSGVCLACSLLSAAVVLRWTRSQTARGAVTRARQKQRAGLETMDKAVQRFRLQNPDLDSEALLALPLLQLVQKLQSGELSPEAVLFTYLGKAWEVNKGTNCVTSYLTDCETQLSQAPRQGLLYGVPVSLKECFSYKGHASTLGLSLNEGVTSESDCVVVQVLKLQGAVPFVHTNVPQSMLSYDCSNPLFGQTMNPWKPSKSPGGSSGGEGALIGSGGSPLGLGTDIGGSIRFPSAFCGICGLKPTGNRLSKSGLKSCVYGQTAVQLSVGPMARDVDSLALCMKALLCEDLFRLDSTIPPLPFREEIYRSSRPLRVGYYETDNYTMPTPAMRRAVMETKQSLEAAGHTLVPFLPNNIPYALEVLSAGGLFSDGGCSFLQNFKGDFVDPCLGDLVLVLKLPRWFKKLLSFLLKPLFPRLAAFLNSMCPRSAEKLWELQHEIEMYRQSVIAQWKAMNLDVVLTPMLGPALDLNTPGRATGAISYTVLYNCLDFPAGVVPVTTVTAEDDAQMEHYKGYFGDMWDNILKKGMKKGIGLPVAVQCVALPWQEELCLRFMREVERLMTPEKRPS
Summary of the method: as §1

MAGL = target: T4, MAGL (Mus musculus, UniProt O35678); conditions: for inhibition at 1 µM: 1 μM inhibitor; for IC50: mouse brain membrane fraction or cell lysates, 30 min preincubation at 37° C., read-out: Mouse (IC50 value, nM) MAGL; for inhibition at 10 µM: 10 μM inhibitor
T4 construct: Proteomes (mouse brain membrane fraction or cell lysates); from tissue; host or cells: mouse brain membrane fraction (or cell lysates, not specified)
T4 sequence (O35678 1-303): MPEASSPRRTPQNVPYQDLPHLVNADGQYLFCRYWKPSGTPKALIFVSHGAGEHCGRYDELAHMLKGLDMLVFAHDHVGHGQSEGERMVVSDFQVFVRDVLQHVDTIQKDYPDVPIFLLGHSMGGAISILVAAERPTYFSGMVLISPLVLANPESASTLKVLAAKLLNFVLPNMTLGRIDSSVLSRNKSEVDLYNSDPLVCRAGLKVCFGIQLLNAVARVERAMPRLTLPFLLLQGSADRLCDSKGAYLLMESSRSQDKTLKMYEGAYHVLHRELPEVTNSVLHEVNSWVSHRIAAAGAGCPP
Summary of the method: as §1

Compound | inhibition at 1 µM (PLA2G7) [%] | IC50 (PLA2G7) [nM] | inhibition at 1 µM (ABHD6) [%] | IC50 (ABHD6) [nM] | inhibition at 1 µM (FAAH) [%] | IC50 (FAAH) [nM] | inhibition at 1 µM (MAGL) [%] | IC50 (MAGL) [nM] | inhibition at 1 µM (PLA2G7; gel-based competitive ABPP) [%] | inhibition at 1 µM (ABHD6; gel-based competitive ABPP) [%] | inhibition at 1 µM (FAAH; gel-based competitive ABPP) [%] | inhibition at 1 µM (MAGL; gel-based competitive ABPP) [%] | inhibition at 10 µM (PLA2G7; gel-based competitive ABPP) [%] | inhibition at 10 µM (ABHD6; gel-based competitive ABPP) [%] | inhibition at 10 µM (FAAH; gel-based competitive ABPP) [%] | inhibition at 10 µM (MAGL; gel-based competitive ABPP) [%]
CCN(Cc1cccc(C)c1)C(=O)n1cc(C#N)cn1 [Example 246, 4-Cyano-N-ethyl-N-(3-methylbenzyl)-1H-pyrazole-1-carboxamide] | – | > 1000 | – | 100 to 1000 | – | < 100 | – | 100 to 1000 | < 25 | > 75 | > 75 | > 75 | – | – | – | –
CCN(Cc1cccc(C)c1)C(=O)n1cc(C(F)(F)F)cn1 [Example 247, N-Ethyl-N-(3-methylbenzyl)-4-(trifluoromethyl)-1H-pyrazole-1-carboxamide] | – | > 1000 | – | 100 to 1000 | – | 100 to 1000 | – | 100 to 1000 | < 25 | 25 to 75 | > 75 | < 25 | < 25 | > 75 | > 75 | > 75
CCN(Cc1cccc(C)c1)C(=O)n1cc(C)cn1 [Example 248, N-ethyl-4-methyl-N-(3-methylbenzyl)-1H-pyrazole-1-carboxamide] | – | – | – | – | – | – | – | – | < 25 | < 25 | < 25 | < 25 | – | – | – | –
CCN(Cc1cccc(OC)c1)C(=O)n1cc(C#N)cn1 [Example 249, 4-Cyano-N-ethyl-N-(3-methoxybenzyl)-1H-pyrazole-1-carboxamide] | – | – | – | > 1000 | – | < 100 | – | 100 to 1000 | < 25 | < 25 | > 75 | > 75 | 25 to 75 | > 75 | > 75 | > 75
CCN(Cc1cccc(OC)c1)C(=O)n1cc(C)cn1 [Example 251, N-Ethyl-N-(3-methoxybenzyl)-4-methyl-1H-pyrazole-1-carboxamide] | – | – | – | – | – | – | – | – | < 25 | < 25 | < 25 | < 25 | – | – | – | –
CCN(Cc1ccc(Cl)cc1)C(=O)n1cc(C#N)cn1 [Example 252, N-(4-Chlorobenzyl)-4-cyano-N-ethyl-1H-pyrazole-1-carboxamide] | – | – | – | > 1000 | – | < 100 | – | 100 to 1000 | < 25 | < 25 | > 75 | > 75 | 25 to 75 | > 75 | > 75 | > 75
CCN(Cc1ccc(Cl)cc1)C(=O)n1cc(C)cn1 [Example 254, N-(4-Chlorobenzyl)-N-ethyl-4-methyl-1H-pyrazole-1-carboxamide] | – | – | – | – | – | – | – | – | < 25 | < 25 | < 25 | < 25 | – | – | – | –
CCN(Cc1ccc(C)cc1)C(=O)n1cc(C#N)cn1 [Example 255, 4-Cyano-N-ethyl-N-(4-methylbenzyl)-1H-pyrazole-1-carboxamide] | – | > 1000 | – | > 1000 | – | < 100 | – | 100 to 1000 | < 25 | < 25 | > 75 | > 75 | – | – | – | –
CCN(Cc1ccc(C)cc1)C(=O)n1cc(C)cn1 [Example 257, N-Ethyl-4-methyl-N-(4-methylbenzyl)-1H-pyrazole-1-carboxamide] | – | – | – | – | – | – | – | – | < 25 | < 25 | < 25 | < 25 | – | – | – | –
CCN(Cc1ccc(OC)cc1)C(=O)n1cc(C#N)cn1 [Example 258, 4-Cyano-N-ethyl-N-(4-methoxybenzyl)-1H-pyrazole-1-carboxamide] | – | > 1000 | – | > 1000 | – | < 100 | – | 100 to 1000 | < 25 | < 25 | > 75 | > 75 | – | – | – | –

Other lines, results leading:

inhibition at 1 µM (PLA2G7) [%] | IC50 (PLA2G7) [nM] | inhibition at 1 µM (ABHD6) [%] | IC50 (ABHD6) [nM] | inhibition at 1 µM (FAAH) [%] | IC50 (FAAH) [nM] | inhibition at 1 µM (MAGL) [%] | IC50 (MAGL) [nM] | inhibition at 1 µM (PLA2G7; gel-based competitive ABPP) [%] | inhibition at 1 µM (ABHD6; gel-based competitive ABPP) [%] | inhibition at 1 µM (FAAH; gel-based competitive ABPP) [%] | inhibition at 1 µM (MAGL; gel-based competitive ABPP) [%] | inhibition at 10 µM (PLA2G7; gel-based competitive ABPP) [%] | inhibition at 10 µM (ABHD6; gel-based competitive ABPP) [%] | inhibition at 10 µM (FAAH; gel-based competitive ABPP) [%] | inhibition at 10 µM (MAGL; gel-based competitive ABPP) [%] | Compound
< 25 | > 1000 | 25 to 75 | > 1000 | > 75 | < 100 | 25 to 75 | > 1000 | – | – | – | – | – | – | – | – | CCN(Cc1cccc(Cl)c1)C(=O)n1cc(C(F)(F)F)cn1 [Example 244, N-(3-Chlorobenzyl)-N-ethyl-4-(trifluoromethyl)-1H-pyrazole-1-carboxamide]
– | – | – | – | – | – | – | – | < 25 | < 25 | < 25 | < 25 | – | – | – | – | CCN(Cc1cccc(Cl)c1)C(=O)n1cc(C)cn1 [Example 245, N-(3-chlorobenzyl)-N-ethyl-4-methyl-1H-pyrazole-1-carboxamide]
– | – | – | > 1000 | – | < 100 | – | > 1000 | < 25 | 25 to 75 | > 75 | > 75 | > 75 | > 75 | > 75 | > 75 | CCN(Cc1cccc(OC)c1)C(=O)n1cc(C(F)(F)F)cn1 [Example 250, N-Ethyl-N-(3-methoxybenzyl)-4-(trifluoromethyl)-1H-pyrazole-1-carboxamide]
– | > 1000 | – | > 1000 | – | < 100 | – | > 1000 | < 25 | < 25 | > 75 | 25 to 75 | – | – | – | – | CCN(Cc1ccc(Cl)cc1)C(=O)n1cc(C(F)(F)F)cn1 [Example 253, N-(4-Chlorobenzyl)-N-ethyl-4-(trifluoromethyl)-1H-pyrazole-1-carboxamide]
– | > 1000 | – | > 1000 | – | < 100 | – | > 1000 | < 25 | < 25 | > 75 | 25 to 75 | – | – | – | – | CCN(Cc1ccc(C)cc1)C(=O)n1cc(C(F)(F)F)cn1 [Example 256, N-Ethyl-N-(4-methylbenzyl)-4-(trifluoromethyl)-1H-pyrazole-1-carboxamide]
– | > 1000 | – | > 1000 | – | < 100 | – | > 1000 | < 25 | < 25 | > 75 | > 75 | – | – | – | – | CCN(Cc1ccc(OC)cc1)C(=O)n1cc(C(F)(F)F)cn1 [Example 259, N-Ethyl-N-(4-methoxybenzyl)-4-(trifluoromethyl)-1H-pyrazole-1-carboxamide]
